Measured values published in the SangsterLogP compilation.

Test: method code G-GLC, from Larsen, B. R., Skejo-Andreasen, H., & Pérez, A. P. (1992). Octanol-water partition coefficients of 39 polychlorinated biphenyls in an Askarel mixture. Fresenius Envir. Bull. I (Supplementum), S13-18.

Compound	logP
Clc1ccc(Cl)c(-c2cc(Cl)ccc2Cl)c1	5.81
Clc1ccc(Cl)c(-c2ccc(Cl)c(Cl)c2)c1	5.99
Clc1cc(Cl)c(-c2cccc(Cl)c2Cl)cc1Cl	6.28
Clc1ccc(-c2ccc(Cl)c(Cl)c2Cl)cc1	5.95
Clc1ccc(-c2ccc(Cl)c(Cl)c2Cl)c(Cl)c1Cl	6.62
Clc1ccc(-c2c(Cl)ccc(Cl)c2Cl)cc1Cl	6.22
Clc1ccc(Cl)c(-c2c(Cl)c(Cl)cc(Cl)c2Cl)c1	6.45
Clc1cc(Cl)c(-c2c(Cl)ccc(Cl)c2Cl)c(Cl)c1Cl	6.76
Clc1ccc(Cl)c(-c2c(Cl)ccc(Cl)c2Cl)c1	6.08
Clc1ccc(-c2cccc(Cl)c2Cl)cc1	5.63
